Test results taken from patent publication US20060226082A1, “Methods for substrate and modulator screening using enzyme-reactor chromatography/tandem mass spectrometry” (McMaster University, priority 2005, published 2006).
“Also recorded” adds a separate entry of the source.

Legend:
[1] = molecular target: T1, adenosine deaminase (ADA, Type V, EC 3.5.4.4) entrapped in monolithic silica column (Bos taurus, UniProt P56658); experiment: ADA enzyme reactor/MS quantitative determination of IC50, KI and Km; format: biochemical, bovine; details: for effect on ADA activity (substrate and product signals, P/S ratio): test compounds increased stepwise from 0 to 1000 nM, adenosine constant at 62.5 μM, 2 mM ammonium acetate; for IC50: IC50 [EHNA]
T1 construct: Adenosine deaminase (ADA, Type V, from bovine intestine, EC 3.5.4.4); purchased Sigma-Aldrich (Oakville, Ontario, Canada) Type V (catalogue number not given); host or cells: bovine intestine (tissue-derived)
T1 sequence (P56658 1-363): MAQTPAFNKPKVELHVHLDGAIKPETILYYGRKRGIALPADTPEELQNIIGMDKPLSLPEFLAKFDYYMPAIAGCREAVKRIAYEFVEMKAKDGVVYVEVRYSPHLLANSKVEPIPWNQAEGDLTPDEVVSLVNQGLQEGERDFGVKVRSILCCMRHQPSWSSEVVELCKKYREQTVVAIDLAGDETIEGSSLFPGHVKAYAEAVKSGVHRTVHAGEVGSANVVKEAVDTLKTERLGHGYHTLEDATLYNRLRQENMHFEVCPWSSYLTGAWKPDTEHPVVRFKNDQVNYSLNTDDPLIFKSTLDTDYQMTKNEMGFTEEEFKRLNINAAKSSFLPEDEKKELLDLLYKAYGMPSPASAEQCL
Source text: In an embodiment of the invention, if the P/S ratio is altered in favour of the substrate, then at least one of the one or more test compounds is an inhibitor of the protein. By altering the ratio of the flow between substrate and test compound channels, one can alter the compound concentrations and, thereby, obtain full inhibition curves. IC50 values are obtained by altering the flow in the substrate and substrate+inhibitor(s) channel in a stepwise fashion, thus allowing for variation of inhibitor concentration with constant substrate concentration. […] KI values are determined by extrapolation of IC50 values obtained at different substrate concentrations to the point of zero substrate concentration as per the equation: [formula] […] Note that for the enzyme reactor column, product concentration, rather than reaction rate, is monitored. Thus, the equation is valid only under conditions where the initial rate is proportional to product concentration. In the present system, it is assumed that this holds for conversion rates of 30% or less.
To assess the enzyme-reactor chromatography/tandem MS method for inhibitor screening, monolithic silica columns containing entrapped adenosine deaminase (ADA, EC 3.5.4.4) and Factor Xa were formed according to previously described methods.^25 ADA was used as the model enzyme owing to the relevance of this protein in immune disorders,^19 and because there are currently no high-throughput screening methods for this enzyme. An Eksigent nanoLC system was used to continuously infuse liquid through the column (10 μL/min total flowrate), with one channel containing adenosine (Pump A) and another containing adenosine plus 1 μM test compound(s) (Pump B), with all species present in 2 mM ammonium acetate buffer (FIG. 1, bottom).
(§1) Columns were fabricated in a fashion similar to that described previously.^25 ADA was exhaustively dialyzed against a solution containing 5 mM Bis-Tris.HCl, pH 6.5, with 10% (v/v) glycerol to remove all traces of phosphate buffer and adjust the pH. 40 mL of the resultant 40 mM ADA solution was then mixed with 20 mL of a solution containing 0.5 mM Bis-Tris.HCl, pH 6.5 with 50% (v/v) glycerol. DGS based sols were prepared by sonicating DGS with water (1 g+1 mL) at 0° C. for 15 min to hydrolyze the monomer, followed by filtration through a 0.2 mm filter. 100 mL of the resulting sol was rapidly mixed with the 60 mL ADA solution prepared above, followed by the rapid addition of 40 mL of 40% (w/v) poly(ethylene glycol) in water. The sol solution was then injected into an 80 cm length of 250 mm i.d., 360 mm o.d., polyimide coated fused silica tubing that was previously cleaned using 1 M NaOH. The liquid sol must be completely mixed, injected and stationary within the capillary by the time phase separation occurs, ˜2 minutes after mixing. After gelation (˜3 min), capillaries were looped such that both ends could be submerged in 50 mM Bis-Tris.HCl pH 6.5 and secured for storage. Columns were aged for a minimum of 5 days to achieve a relatively stable internal structure. After aging, 10 cm column segments were cut from poured columns, as required.
A 2 channel, Eksigent nanoLC pump was used for mobile phase delivery to a MDS Sciex Q-Trap Mass Spectrometer. Note that the Eksigent pump uses direct pneumatic pumping of mobile phase at μL/min rates, with no flow splitting. An Eksigent AS-1 48 vial autosampler was fitted with a 250 μL withdrawal syringe and a 150 μL loop of 250 μm i.d. fused silica tubing. Thus, only small volumes of inhibitor solutions (˜400 μL) are required for screening, although larger volumes can be loaded directly into the Eksigent pump reservoir (1-5 mL depending on configuration) for determination of IC50 values. […] Mobile phases were run directly into the MS system, without the introduction of an organic “make-up flow”. Mass spectrometer control and data acquisition was done using Analyst v.1.4 software.

[2] = molecular target: T1, adenosine deaminase (ADA, Type V, EC 3.5.4.4) entrapped in monolithic silica column; experiment: ADA enzyme reactor/MS mixture screening (primary and secondary screen); format: biochemical, bovine; details: each compound individually, 500 nM and 10 μM, 200 μM adenosine
Procedure: as §1, with “required. […]” for “required.”

[3] = molecular target: T2, adenosine deaminase (ADA) (Homo sapiens, UniProt P00813); details: literature value; read-out: published KI value; cited from earlier work
T2 sequence (P00813 1-363): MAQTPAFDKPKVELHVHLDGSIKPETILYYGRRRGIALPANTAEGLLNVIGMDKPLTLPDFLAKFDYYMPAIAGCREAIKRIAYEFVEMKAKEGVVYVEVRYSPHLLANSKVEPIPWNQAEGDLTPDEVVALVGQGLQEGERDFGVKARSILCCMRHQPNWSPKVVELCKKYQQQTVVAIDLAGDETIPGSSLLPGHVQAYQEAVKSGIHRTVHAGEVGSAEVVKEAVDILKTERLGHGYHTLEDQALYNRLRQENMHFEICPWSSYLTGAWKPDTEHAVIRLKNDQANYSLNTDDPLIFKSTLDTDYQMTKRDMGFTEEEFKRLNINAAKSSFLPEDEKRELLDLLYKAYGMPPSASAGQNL

Row | Vmax ([1]; Michaelis-Menten analysis of inosine production rate (FIG. 6b)) [pmole/min/column] | Ki [1] [µM] | IC50 ([1]; EHNA alone (closed circles, FIG. 8A)) [µM] | IC50 ([1]; EHNA in a mixture (open circles, FIG. 8A)) [µM] | SMILES | effect on ADA activity (substrate and product signals, P/S ratio) [1] | ADA inhibition in secondary screen (individual compounds of active mixture) [2] | Ki [3] [µM]
1 | 734 | – | – | – | Nc1ncnc2c1ncn2[C@@H]1O[C@H](CO)[C@@H](O)[C@H]1O [adenosine] | – | – | –
2 | – | – | – | – | Nc1nc2ncc(CNc3ccc(C(=O)N[C@@H](CCC(=O)O)C(=O)O)cc3)nc2c(=O)[nH]1 [folic acid] | no significant effect | – | –
3 | – | 0.0157 ± 0.0035 | 0.0294 | 0.0297 | CCCCCCC(C(C)O)n1cnc2c(N)ncnc21 (stereo not drawn) [EHNA, erythro-9-(2-hydroxy-3-nonyl)adenine] | concentration-dependent decrease in product and increase in substrate signals; also recorded: concentration-dependent decrease in ADA activity | active, inhibitory compound; also recorded: inhibitor of ADA | 0.0065
